Values after ≈ are worked out from the molar mass of the structure shown. Where two headings read alike, the source gives them in different places.
Key:
Format in all cases: cell-based
[1] = system: Streptococcus pyogenes 1079; experiment: MIC, microtiter broth dilution (NCCLS M100-S14), S. pyogenes 1079 (ermB)
How it was run: (§1)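 Broth microdilution MICs in microtiter trays, run and interpreted per NCCLS M100-S14. Compounds were dissolved in DMSO as 40 mg/ml stocks.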

[2] = system: Streptococcus pneumoniae 1016; experiment: MIC, microtiter broth dilution (NCCLS M100-S14), S. pneumoniae 1016 (susceptible)
How it was run: as §1

[3] = system: Streptococcus pneumoniae 1095; conditions: microtiter broth dilution
How it was run: as §1

[4] = system: Streptococcus pneumoniae 1175; conditions: microtiter broth dilution
How it was run: as §1

[5] = system: Haemophilus influenzae 1218; experiment: MIC, microtiter broth dilution (NCCLS M100-S14), H. influenzae 1218 (susceptible)
How it was run: as §1

[6] = S. pneumoniae 1016 (susceptible)
[7] = H. influenzae 1218 (susceptible)

Compound	MIC S. pyogenes 1079 ([1]; Streptococcus pyogenes 1079)	MIC S. pneumo. 1016 ([2]; Streptococcus pneumoniae 1016)	MIC S. pneumo. 1095 ([3]; Streptococcus pneumoniae 1095)	MIC S. pneumo. 1175 ([4]; Streptococcus pneumoniae 1175)	MIC H. influenzae 1218 ([5]; Haemophilus influenzae 1218)	MIC S. pyogenes 1079 ([1]; S. pyogenes 1079 (ermB))	MIC S. pneumo. 1016 [2, 6]	MIC S. pneumo. 1095 ([3]; S. pneumoniae 1095 (ermB))	MIC S. pneumo. 1175 ([4]; S. pneumoniae 1175 (mefA))	MIC H. influenzae 1218 [5, 7]
CC[C@H]1OC(=O)[C@H](C)C(=O)[C@H](C)[C@@H](O[C@@H]2O[C@H](C)C[C@H](N(C)C)[C@H]2O)[C@](C)(OC)C[C@@H](C)C(=O)[C@H](C)[C@H]2N(CC3(C)CN(Cc4ccc5nccnc5c4)C3)C(=O)O[C@]12C [6.04]	>64.00 µg/mL	<0.06 µg/mL	0.25 µg/mL (≈ 0.298 µM)	0.25 µg/mL (≈ 0.298 µM)	1 µg/mL (≈ 1.19 µM)	–	–	–	–	–
CCC1OC(=O)C(C)C(=O)C(C)C(OC2OC(C)CC(N(C)C)C2O)C(C)(OC)CC(C)C(=O)C(C)C2N(CC3CCCN3C(=O)c3ccc(-n4cccn4)nc3)C(=O)OC12C.O=CO (centres unmarked) [10.13]	–	–	–	–	–	>64.00 µg/mL	<0.06 µg/mL	0.5 µg/mL	0.5 µg/mL	16 µg/mL
3-descladinosyl-11,12-dideoxy-6-O-methyl-3-oxo-12,11-(oxycarbonyl-(1-((isoquinolin-4-yl)-methyl)-azetidin-3-yl)-imino)-erythromycin A [Example 1.30]	4 µg/mL	<0.06 µg/mL	<0.06 µg/mL	<0.06 µg/mL	1 µg/mL	–	–	–	–	–
CC[C@H]1OC(=O)[C@H](C)C(=O)[C@H](C)[C@@H](O[C@@H]2O[C@H](C)C[C@H](N(C)C)[C@H]2O)[C@](C)(OC)C[C@@H](C)C(=O)[C@H](C)[C@H]2N(CC3(O)CN(Cc4ccno4)C3)C(=O)O[C@]12C [7.11]	–	–	–	–	–	>64.00 µg/mL	<0.06 µg/mL	4 µg/mL (≈ 5.14 µM)	0.5 µg/mL (≈ 0.642 µM)	2 µg/mL (≈ 2.57 µM)
CC[C@H]1OC(=O)[C@H](C)[C@@H](OC(=O)N2CCCC2)[C@H](C)[C@@H](O[C@@H]2O[C@H](C)C[C@H](N(C)C)[C@H]2O)[C@](C)(OC)C[C@@H](C)C(=O)[C@H](C)[C@H]2N(CC3CN(Cc4nc5ccccc5s4)C3)C(=O)O[C@]12C [Example 5.14, 2-R^2: (benzo[d]thiazol-2-yl)methyl; R^#: pyrrolidin-1-yl]	32 µg/mL (≈ 34.5 µM)	<0.06 µg/mL	4 µg/mL (≈ 4.31 µM)	<0.06 µg/mL	4 µg/mL (≈ 4.31 µM)	–	–	–	–	–
CCC1OC(=O)C(C)C(=O)C(C)C(OC2OC(C)CC(N(C)C)C2O)C(C)(OC)CC(C)C(=O)C(C)C2N(C3CN(S(=O)(=O)c4ncn5ccccc45)C3)C(=O)OC12C (centres unmarked) [Example 3.19, 3-descladinosyl-11,12-dideoxy-6-O-methyl-3-oxo-12,11-(oxycarbonyl-(1-(H-imidazo[1,5-a]pyridine-1-sulfonyl)-azetidin-3-yl)-imino)-erythromycin A]	1 µg/mL (≈ 1.18 µM)	<0.06 µg/mL	<0.06 µg/mL	<0.06 µg/mL	0.25 µg/mL (≈ 0.295 µM)	–	–	–	–	–
CC[C@H]1OC(=O)[C@H](C)C(=O)[C@H](C)[C@@H](O[C@@H]2O[C@H](C)C[C@H](N(C)C)[C@H]2O)[C@](C)(OC)C[C@@H](C)C(=O)[C@H](C)[C@H]2N(CC3(O)CN(Cc4ccc(-c5cncnc5)cc4)C3)C(=O)O[C@]12C [7.12]	–	–	–	–	–	>64.00 µg/mL	<0.06 µg/mL	>64.00 µg/mL	0.5 µg/mL (≈ 0.577 µM)	2 µg/mL (≈ 2.31 µM)
CCC1OC(=O)C(C)C(=O)C(C)C(OC2OC(C)CC(N(C)C)C2O)C(C)(OC)CC(C)C(=O)C(C)C2N(C3CN(Cc4ccncc4)C3)C(=O)OC12C (centres unmarked) [Example 1.04, (pyridin-4-yl)methyl]	>64.00 µg/mL	<0.06 µg/mL	0.12 µg/mL (≈ 0.158 µM)	0.5 µg/mL (≈ 0.659 µM)	0.25 µg/mL (≈ 0.329 µM)	–	–	–	–	–
CCC1OC(=O)C(C)C(=O)C(C)C(OC2OC(C)CC(N(C)C)C2O)C(C)(OC)CC(C)C(=O)C(C)C2N(C3CN(C(=O)Nc4cccc5ncccc45)C3)C(=O)OC12C (centres unmarked) [Example 2.06, 3-descladinosyl-11,12-dideoxy-6-O-methyl-3-oxo-12,11-(oxycarbonyl-(1-(N-(quinolin-5-yl)-aminocarbonyl)-azetidin-3-yl)-imino)-erythromycin A]	>64.00 µg/mL	<0.06 µg/mL	16 µg/mL (≈ 19.1 µM)	0.25 µg/mL (≈ 0.298 µM)	0.5 µg/mL (≈ 0.597 µM)	–	–	–	–	–
CCC1OC(=O)C(C)C(=O)C(C)C(OC2OC(C)CC(N(C)C)C2O)C(C)(OC)CC(C)C(=O)C(C)C2N(C3CN(S(=O)(=O)c4ccc5c(c4)N(C)S(=O)(=O)N5C)C3)C(=O)OC12C (centres unmarked) [Example 3.116, 3-descladinosyl-11,12-dideoxy-6-O-methyl-3-oxo-12,11-(oxycarbonyl-(1-(1,3-dimethyl-2,1,3-benzothiadiazole-2,2-dioxide-0-5-sulfonyl)-azetidin-3-yl)-imino)-erythromycin A]	0.5 µg/mL (≈ 0.539 µM)	<0.063 µg/mL	<0.063 µg/mL	<0.063 µg/mL	0.5 µg/mL (≈ 0.539 µM)	–	–	–	–	–
CCC1OC(=O)C(C)C(=O)C(C)C(OC2OC(C)CC(N(C)C)C2O)C(C)(OC)CC(C)C(=O)C(C)C2N(C3CN(Cc4ccc(-n5cccn5)nc4)C3)C(=O)OC12C (centres unmarked) [Example 1.45]	16 µg/mL (≈ 19.4 µM)	<0.06 µg/mL	<0.06 µg/mL	0.5 µg/mL (≈ 0.606 µM)	4 µg/mL (≈ 4.85 µM)	–	–	–	–	–
CCC1OC(=O)C(C)C(=O)C(C)C(OC2OC(C)CC(N(C)C)C2O)C(C)(OC)CC(C)C(=O)C(C)C2N(C3CN(Cc4ccccc4)C3)C(=O)OC12C (centres unmarked) [Example 1.01, benzyl]	>64.00 µg/mL	<0.06 µg/mL	<0.06 µg/mL	0.12 µg/mL (≈ 0.158 µM)	0.5 µg/mL (≈ 0.66 µM)	–	–	–	–	–
CC[C@H]1OC(=O)[C@H](C)C(=O)[C@H](C)[C@@H](O[C@@H]2O[C@H](C)C[C@H](N(C)C)[C@H]2O)[C@](C)(OC)C[C@@H](C)C(=O)[C@H](C)[C@H]2N(C3CN(Cc4c(C#N)cnc5ccccc45)C3)C(=O)O[C@]12C [Example 1.73, 3-descladinosyl-11,12-dideoxy-6-O-methyl-3-oxo-12,11-(oxycarbonyl-(1-(quinoline-3-carbonitrile-4-methyl)-azetidin-3-yl)-imino)erythromycin A]	0.125 µg/mL (≈ 0.15 µM)	<0.063 µg/mL	<0.063 µg/mL	<0.063 µg/mL	2 µg/mL (≈ 2.4 µM)	–	–	–	–	–
CCC1OC(=O)C(C)C(=O)C(C)C(OC2OC(C)CC(N(C)C)C2O)C(C)(OC)CC(C)C(=O)C(C)C2N(C3CN(S(=O)(=O)c4ccc(-c5nncs5)cc4)C3)C(=O)OC12C (centres unmarked) [Example 3.76, 3-descladinosyl-11,12-dideoxy-6-O-methyl-3-oxo-12,11-(oxycarbonyl-(1-(4-(1,3,4-thiadiazol-2-yl)benzenesulfonyl)-azetidin-3-yl)-imino)-erythromycin A]	0.12 µg/mL (≈ 0.135 µM)	<0.06 µg/mL	<0.06 µg/mL	<0.06 µg/mL	0.5 µg/mL (≈ 0.56 µM)	–	–	–	–	–
CCC1OC(=O)C(C)C(=O)C(C)C(OC2OC(C)CC(N(C)C)C2O)C(C)(OC)CC(C)C(=O)C(C)C2N(CC3CN(C(=O)c4ccc5cccnc5n4)C3)C(=O)OC12C.O=CO (centres unmarked) [4.40]	>64.00 µg/mL	<0.06 µg/mL	8 µg/mL	0.5 µg/mL	4 µg/mL	–	–	–	–	–
CCC1OC(=O)C(C)C(=O)C(C)C(OC2OC(C)CC(N(C)C)C2O)C(C)(OC)CC(C)C(=O)C(C)C2N(C3CN(S(=O)(=O)c4cccc(-c5cc(C)no5)c4)C3)C(=O)OC12C (centres unmarked) [Example 3.40, 3-descladinosyl-11,12-dideoxy-6-O-methyl-3-oxo-12,11-(oxycarbonyl-1(-(3-(3-methylisoxazol-5-yl)benzenesulfonyl)-azetidin-3-yl)-imino)-erythromycin A]	4 µg/mL (≈ 4.5 µM)	<0.06 µg/mL	<0.06 µg/mL	<0.06 µg/mL	2 µg/mL (≈ 2.25 µM)	–	–	–	–	–
CCC1OC(=O)C(C)C(=O)C(C)C(OC2OC(C)CC(N(C)C)C2O)C(C)(OC)CC(C)C(=O)C(C)C2N(CC3CCN(Cc4ccc(-c5ccccn5)cc4)C3)C(=O)OC12C (centres unmarked) [13.05]	–	–	–	–	–	>64.00 µg/mL	<0.06 µg/mL	16 µg/mL (≈ 18.5 µM)	0.5 µg/mL (≈ 0.579 µM)	4 µg/mL (≈ 4.63 µM)
CCC1OC(=O)C(C)C(=O)C(C)C(OC2OC(C)CC(N(C)C)C2O)C(C)(OC)CC(C)C(=O)C(C)C2N(CC3(O)CN(S(=O)(=O)c4cccc5cccnc45)C3)C(=O)OC12C (centres unmarked) [7.06]	–	–	–	–	–	>64.00 µg/mL	<0.06 µg/mL	32 µg/mL (≈ 36 µM)	0.5 µg/mL (≈ 0.562 µM)	0.5 µg/mL (≈ 0.562 µM)
CC[C@H]1OC(=O)[C@H](C)C(=O)[C@H](C)[C@@H](O[C@@H]2O[C@H](C)C[C@H](N(C)C)[C@H]2O)[C@](C)(OC)C[C@@H](C)C(=O)[C@H](C)[C@H]2N(C3CN(C(C)c4ccnc5ccccc45)C3)C(=O)O[C@]12C (some centres unmarked) [Example 1.63, 3-descladinosyl-11,12-dideoxy-6-O-methyl-3-oxo-12,11-(oxycarbonyl-(1-(1-(quinolin-4-yl)-ethyl)-azetidin-3-yl)-imino)-erythromycin A]	2 µg/mL (≈ 2.43 µM)	<0.06 µg/mL	<0.06 µg/mL	0.12 µg/mL (≈ 0.146 µM)	1 µg/mL (≈ 1.22 µM)	–	–	–	–	–

Source: US7462600B2, “Macrolides” (Pfizer Inc, priority 2004, dated 2008)
